Source: patent US20260285850A1, “SUBSTITUTED OXAZOLIDINONES AND IMIDAZOLINONES AS HERBICIDES” (FMC CORPORATION, priority 2023, published 2026)

Columns and labels:
Format in all cases: in vivo
kochia (Bassia scoparia) [1] = assay: Test A preemergence soil spray, visual injury rating 0-100; conditions: 10 days, 0 = no effect, 100 = complete control
Summary of the method: (§1)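 Grow plants in loam soil blended with sand. Apply formulated compound (non-phytotoxic solvent, surfactant) as a directed soil spray before emergence, or to plants at the one- to two-leaf stage after emergence. Hold in greenhouse 10 days, then rate injury visually versus untreated controls on a 0-100 scale.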

[2] = test system: green foxtail (Setaria viridis); assay: as above; conditions: 10 days, 0 = no effect, 100 = complete control
Summary of the method: as §1

[3] = test system: wheat (Triticum aestivum); assay: as above; conditions: 10 days, 0 = no effect, 100 = complete control
Summary of the method: as §1

[4] = test system: ryegrass, Italian (italian ryegrass, Lolium multiflorum); assay: as above; conditions: 10 days, 0 = no effect, 100 = complete control
Summary of the method: as §1

[5] = test system: blackgrass (Alopecurus myosuroides); assay: as above; conditions: 10 days, 0 = no effect, 100 = complete control
Summary of the method: as §1

soybean (Glycine max) [6] = assay: as above; conditions: 10 days, 0 = no effect, 100 = complete control
Summary of the method: as §1

[7] = test system: barnyardgrass (Echinochloa crus-galli); assay: as above; conditions: 10 days, 0 = no effect, 100 = complete control
Summary of the method: as §1

[8] = test system: ragweed (common ragweed, Ambrosia artemisiifolia); assay: as above; conditions: 10 days, 0 = no effect, 100 = complete control
Summary of the method: as §1

corn (Zea mays) [9] = assay: as above; conditions: 10 days, 0 = no effect, 100 = complete control
Summary of the method: as §1

[10] = test system: oat, wild (wild oat, Avena fatua); assay: as above; conditions: 10 days, 0 = no effect, 100 = complete control
Summary of the method: as §1

[11] = test system: palmer (palmer amaranth, palmer pigweed, Amaranthus palmeri); assay: as above; conditions: 10 days, 0 = no effect, 100 = complete control
Summary of the method: as §1

kochia (Bassia scoparia) [12] = assay: Test A postemergence application, visual injury rating 0-100; conditions: Postemergence
Summary of the method: as §1

[13] = test system: green foxtail (Setaria viridis); assay: as above; conditions: Postemergence
Summary of the method: as §1

[14] = test system: wheat (Triticum aestivum); assay: as above; conditions: Postemergence
Summary of the method: as §1

[15] = test system: ryegrass, Italian (italian ryegrass, Lolium multiflorum); assay: as above; conditions: Postemergence
Summary of the method: as §1

[16] = test system: galium (catchweed bedstraw, Galium aparine); assay: as above; conditions: Postemergence
Summary of the method: as §1

[17] = test system: blackgrass (Alopecurus myosuroides); assay: as above; conditions: Postemergence
Summary of the method: as §1

soybean (Glycine max) [18] = assay: as above; conditions: Postemergence
Summary of the method: as §1

[19] = test system: barnyardgrass (Echinochloa crus-galli); assay: as above; conditions: Postemergence
Summary of the method: as §1

[20] = test system: ragweed (common ragweed, Ambrosia artemisiifolia); assay: as above; conditions: Postemergence
Summary of the method: as §1

[21] = test system: horseweed (Erigeron canadensis); assay: as above; conditions: Postemergence
Summary of the method: as §1

corn (Zea mays) [22] = assay: as above; conditions: Postemergence
Summary of the method: as §1

[23] = test system: oat, wild (wild oat, Avena fatua); assay: as above; conditions: Postemergence
Summary of the method: as §1

[24] = test system: palmer (palmer amaranth, palmer pigweed, Amaranthus palmeri); assay: as above; conditions: Postemergence
Summary of the method: as §1

rice (Oryza sativa) = assay: Test B flooded paddy test, visual plant response rating 0-100; conditions: 250 g ai/ha, Flood, applied to paddy water, evaluated after 13 days
Summary of the method: (§2)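 Compounds applied to standing paddy water (3 cm above soil, maintained for the test duration) on 2-leaf-stage plants; visual rating vs controls at 13 days, greenhouse.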

[25] = test system: ducksalad (Heteranthera limosa); assay: as above; conditions: 250 g ai/ha, Flood, applied to paddy water, evaluated after 13 days
Summary of the method: as §2

[26] = test system: barnyardgrass (Echinochloa crusgalli); assay: as above; conditions: 250 g ai/ha, Flood, applied to paddy water, evaluated after 13 days
Summary of the method: as §2

[27] = test system: sedge, umbrella (small-flower umbrella sedge, Cyperus difformis); assay: as above; conditions: 250 g ai/ha, Flood, applied to paddy water, evaluated after 13 days
Summary of the method: as §2

[28] = 31 g ai/ha, greenhouse 10 days, 0 no effect, 100 complete control
[29] = 125 g ai/ha, 10 days, 0 is no effect, 100 is complete control

With `COC(=O)COC(=O)C1C=CC(NC(=O)C2(C)CN(c3cc(Cl)cc(Cl)c3)C(=O)O2)C1` (stereo not shown) [Compound 65] the “Kochia plant response rating (0-100)” value (kochia (Bassia scoparia) [1]; 31 g ai/ha) was 10, the “Kochia plant response rating (0 to 100 scale)” value (kochia (Bassia scoparia) [1]; 125 g ai/ha) was 10 and the “Foxtail, Green plant response rating (0-100)” value ([2]; 31 g ai/ha) was 90. The “Foxtail, Green plant response rating (0 to 100 scale)” value (shortened to “Foxtail … (0 to 100 scale)”) ([2]; 125 g ai/ha) was 90, the “Wheat plant response rating (0-100)” value ([3]; 31 g ai/ha) was 50 and the “Wheat plant response rating (0 to 100 scale)” value ([3]; 125 g ai/ha) was 90. The “Ryegrass, Italian plant response rating (0-100)” value ([4]; 31 g ai/ha) was 70, the “Ryegrass, Italian plant response rating (0 to 100 scale)” value (from here on “Ryegrass … (0 to 100 scale)”) ([4]; 125 g ai/ha) was 90 and the “Blackgrass plant response rating (0-100)” value ([5]; 31 g ai/ha) was 50. The “Blackgrass plant response rating (0 to 100 scale)” value ([5]; 125 g ai/ha) was 70, the “Soybean plant response rating (0-100)” value (soybean (Glycine max) [6]; 31 g ai/ha) was 10 and the “Soybean plant response rating (0 to 100 scale)” value (soybean (Glycine max) [6]; 125 g ai/ha) was 70. For the same compound, the “Barnyardgrass plant response rating (0-100)” value ([7]; 31 g ai/ha) was 90, the “Barnyardgrass plant response rating (0 to 100 scale)” value ([7]; 125 g ai/ha) was 90 and the “Ragweed plant response rating (0-100)” value ([8]; 31 g ai/ha) was 10. For the same compound, the “Ragweed plant response rating (0 to 100 scale)” value ([8]; 125 g ai/ha) was 70, the “Corn plant response rating (0-100)” value (corn (Zea mays) [9]; 31 g ai/ha) was 0 and the “Corn plant response rating (0 to 100 scale)” value (corn (Zea mays) [9]; 125 g ai/ha) was 70. For the same compound, the “Oat, Wild plant response rating (0-100)” value ([10]; 31 g ai/ha) was 20, the “Oat, Wild plant response rating (0 to 100 scale)” value (from here on “Oat … (0 to 100 scale)”) ([10]; 125 g ai/ha) was 80 and the “Amaranth, Palmer plant response rating (0-100)” value ([11]; 31 g ai/ha) was 100. The “Amaranth, Palmer plant response rating (0 to 100 scale)” value ([11]; 125 g ai/ha) was 100, the “Kochia plant response rating (0 to 100 scale)” value (kochia (Bassia scoparia) [12]; [28]) was 80 and the “Kochia plant response rating (0 to 100 scale)” value (kochia (Bassia scoparia) [12]; [29]) was 90. The “Foxtail … (0 to 100 scale)” value [13, 28] was 90, the “Foxtail … (0 to 100 scale)” value [13, 29] was 90 and the “Wheat plant response rating (0 to 100 scale)” value [14, 28] was 90. The “Wheat plant response rating (0 to 100 scale)” value [14, 29] was 90, the “Ryegrass … (0 to 100 scale)” value [15, 28] was 100 and the “Ryegrass … (0 to 100 scale)” value [15, 29] was 100. For the same compound, the “Galium plant response rating (0 to 100 scale)” value [16, 28] was 80, the “Galium plant response rating (0 to 100 scale)” value [16, 29] was 90 and the “Blackgrass plant response rating (0 to 100 scale)” value [17, 28] was 90. For the same compound, the “Blackgrass plant response rating (0 to 100 scale)” value [17, 29] was 100, the “Soybean plant response rating (0 to 100 scale)” value (soybean (Glycine max) [18]; [28]) was 80 and the “Soybean plant response rating (0 to 100 scale)” value (soybean (Glycine max) [18]; [29]) was 80. For the same compound, the “Barnyardgrass plant response rating (0 to 100 scale)” value [19, 28] was 100, the “Barnyardgrass plant response rating (0 to 100 scale)” value [19, 29] was 100 and the “Ragweed plant response rating (0 to 100 scale)” value [20, 28] was 80. For the same compound, the “Ragweed plant response rating (0 to 100 scale)” value [20, 29] was 80, the “Horseweed plant response rating (0 to 100 scale)” value [21, 28] was 70 and the “Horseweed plant response rating (0 to 100 scale)” value [21, 29] was 70. The “Corn plant response rating (0 to 100 scale)” value (corn (Zea mays) [22]; [28]) was 100, the “Corn plant response rating (0 to 100 scale)” value (corn (Zea mays) [22]; [29]) was 100 and the “Oat … (0 to 100 scale)” value [23, 28] was 90. For the same compound, the “Oat … (0 to 100 scale)” value [23, 29] was 90, the “Amaranth, Palmer / Pigweed, Palmer plant response rating (0 to 100 scale)” value [24, 28] was 90 and the “Amaranth, Palmer / Pigweed, Palmer plant response rating (0 to 100 scale)” value [24, 29] was 90. The “Plant response rating, Rice (0 to 100 scale, 0 is no effect and 100 is complete control)” value (rice (Oryza sativa)) was 60, the “Plant response rating, Ducksalad (0 to 100 scale, 0 is no effect and 100 is complete control)” value [25] was 95 and the “Plant response rating, Barnyardgrass (0 to 100 scale, 0 is no effect and 100 is complete control)” value [26] was 75. The “Plant response rating, Sedge, Umbrella (0 to 100 scale, 0 is no effect and 100 is complete control)” value [27] was 100.
